The results in this text go back to US8394836B2, “Indoles and their therapeutic use” (Pulmagen Therapeutics (Asthma) Limited, priority 2007, dated 2013).

Experiment [1] has as its target T1, CRTH2 receptor (Homo sapiens, UniProt Q9Y5Y4).
T1 construct: expressed in transfected cells; host or cells: Human embryonic kidney (HEK) cells, used as membranes
T1 sequence (Q9Y5Y4 1-395): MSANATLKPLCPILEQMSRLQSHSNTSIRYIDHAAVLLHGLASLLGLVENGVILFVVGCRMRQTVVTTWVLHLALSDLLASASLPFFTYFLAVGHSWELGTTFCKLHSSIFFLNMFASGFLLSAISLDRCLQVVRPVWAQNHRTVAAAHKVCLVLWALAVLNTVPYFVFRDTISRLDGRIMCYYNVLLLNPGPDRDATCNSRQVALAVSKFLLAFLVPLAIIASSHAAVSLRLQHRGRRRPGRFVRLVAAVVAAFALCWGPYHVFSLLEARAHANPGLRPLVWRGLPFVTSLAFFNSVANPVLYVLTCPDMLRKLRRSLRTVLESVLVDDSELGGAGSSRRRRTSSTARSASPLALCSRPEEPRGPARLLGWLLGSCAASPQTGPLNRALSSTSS
Put plainly: CRTH2 radioligand binding assay ([3H]-PGD2 displacement, SPA). As to conditions: HEK cell membranes expressing the CRTH2 receptor; 1 nM [3H]-PGD2; Ki from IC50 by Cheng-Prusoff. The method, then:
Compounds of the invention were tested using the following biological test method to determine their ability to displace PGD2 from the CRTH2 receptor.
CRTH2 Radioligand Binding Assay
The receptor binding assay is performed in a final volume of 200 μL binding buffer [10 mM BES (pH 7.4), 1 mM EDTA, 10 mM manganese chloride, 0.01% BSA] and 1 nM [^3H]-PGD2 (Amersham Biosciences UK Ltd). Ligands are added in assay buffer containing a constant amount of DMSO (1% by volume). Total binding is determined using 1% by volume of DMSO in assay buffer and non-specific binding is determined using 10 μM of unlabeled PGD2 (Sigma). Human embryonic kidney (HEK) cell membranes (3.5 μg) expressing the CRTH2 receptor are incubated with 1.5 mg wheatgerm agglutinin SPA beads and 1 nM [^3H]-PGD2 (Amersham Biosciences UK Ltd) and the mixture incubated for 3 hours at room temperature. Bound [^3H]-PGD2 is detected using a Microbeta TRILUX liquid scintillation counter (Perkin Elmer). Compound IC50 value is determined using a 6-point dose response curve in duplicate with a semi-log compound dilution series. IC50 calculations are performed using Excel and XLfit (Microsoft), and this value is used to determine a Ki value for the test compound using the Cheng-Prusoff equation.

Experiment [2] concerns the target T1, CRTH2 receptor. Put plainly: GTPγS functional assay. Conditions: HEK cell membranes expressing the CRTH2 receptor; PGD2 30 nM; [35S]-GTPγS; Ki from IC50 by Cheng-Prusoff. The format is biochemical. As for the experimental part:
The GTP[…]S Assay is performed in a final volume of […] assay buffer (20 mM HEPES pH 7.4, 10 mM MgCl2, 100 mM NaCl, 10 μg/mL saponin). DMSO concentrations are kept constant at 1% by volume. Human embryonic kidney (HEK) cell membranes (3.5 μg) expressing the CRTH2 receptor are incubated with the compounds for 15 min at 30° C. prior to addition of PGD2 (30 nM final concentration) and GTP (10 μM final concentration). The assay solutions are then incubated for 30 minutes at 30° C., followed by addition of [^35S]-GTPγS (0.1 nM final concentration). The assay plate is than shaken and incubated for 5 minutes at 30° C. Finally, SPA beads (Amersham Biosciences, UK) are added to a final concentration of 1.5 mg/well and the plate shaken and incubated for 30 minute at 30° C. The sealed plate is centrifuged at 1000 g for 10 mins at 30° C. and the bound [^35S]-GTPγS is detected on Microbeta scintillation counter (Perkin Elmer). Compound IC50 value is determined using a 6-point dose response curve in duplicate with a semi-log compound dilution series. IC50 calculations are performed using Excel and XLfit (Microsoft), and this value is used to determine a Ki value for the test compound using the Cheng-Prusoff equation.

The structures appear in SMILES notation. pKi: −log10 of the molar value.

The term pKi denotes the Ki on a negative log10 scale, so that one unit is a factor of ten. Consider `Cc1c(Cc2sccc2S(=O)(=O)c2ccc(F)cc2)c2cc(F)ccc2n1CC(=O)O` [Example 1, {5-fluoro-3-[3-(4-fluorobenzenesulfonyl)thiophen-2-ylmethyl]-2-methylindol-1-yl}acetic acid], for which the pKi at CRTH2 receptor [1] was 8.82; on CRTH2 receptor [2], greater than 8.00.

`Cc1c(Cc2sccc2S(=O)(=O)c2ccccn2)c2cc(F)ccc2n1CC(=O)O` [Example 16, {5-fluoro-2-methyl-3-[3-(pyridine-2-sulfonyl)thiophen-2-ylmethyl]indol-1-yl}acetic acid]: the pKi at CRTH2 receptor [1] was 8.62; at CRTH2 receptor [2], greater than 8.00.

`Cc1c(Cc2ccccc2S(=O)(=O)N(C)c2ccccc2)c2cc(F)ccc2n1CC(=O)O` [Example 21, {5-fluoro-2-methyl-3-[2-(methylphenylsulfamoyl)benzyl]indol-1-yl}acetic acid] showed a negative logarithm of the Ki (pKi) at CRTH2 receptor [1] of 9.22.

In the case of `Cc1c(Cc2cccnc2S(=O)(=O)c2ccccc2)c2cc(Cl)ccc2n1CC(=O)O` [Example 26, {5-chloro-3-[2-(benzenesulfonyl)pyridine-3-ylmethyl]-2-methylindol-1-yl}acetic acid], the pKi at CRTH2 receptor [1] is 8.35; on CRTH2 receptor [2], greater than 8.00.
